We go through two molecules from patent US8269007B2, “Crystalline form II of 7-(dimethoxy-methyl) camptothecin, its use as intermediate and products obtained therefrom” (Sigma-Tau Industrie Farmaceutiche Riunite SpA, priority 2007, dated 2012).

Molecules are shown by their SMILES.

The nature of the data set: Thermal behaviour (TGA melting range apparatus Mettler TG 50, confirmed by DSC Mettler DSC 30). Particulars: for decomposition temperature: heat ramp 20° C./min (TGA/DSC).

Regarding `CC[C@@]1(O)C(=O)OCc2c1cc1n(c2=O)Cc2c-1nc1ccccc1c2C(OC)OC` [Form II, (4S)-11-(dimethoxymethyl)-4-ethyl-4-hydroxy-1H-pyrano[3′,4′:6,7]indolizino[1,2-b]quinoline-3,14(4H,12H)-dione], the decomposition temperature was 173.56 °C.
As for `CC[C@@]1(O)C(=O)OCc2c1cc1n(c2=O)Cc2c-1nc1ccccc1c2C(OC)OC` [Form I, 7-(dimethoxy-methyl)camptothecin], the “thermal stability of one crystal form compared with the other” value (FT-IR, powder x-ray and TGA / DSC-TGA comparison of Form I and Form II) was “less stable”. The decomposition temperature (listed as 7-(dimethoxy-methyl)camptothecin form I) amounted to 123.38 °C and the decomposition temperature (listed as form I) is 123.38 °C.
